In ChEMBL document CHEMBL1127975, “Balanced angiotensin II receptor antagonists. II.1,2 4-aminomethyl- and acylaminomethylimidazoles” (Bioorg Med Chem Lett, 1994):
pIC50: −log10 of the molar value.

What follows are compounds tested against T1, Type-2 angiotensin II receptor (Homo sapiens, UniProt P50052) (assay: In vitro binding affinity of compound against angiotensin II AT-2 receptor).
T1 sequence (P50052 whole entry): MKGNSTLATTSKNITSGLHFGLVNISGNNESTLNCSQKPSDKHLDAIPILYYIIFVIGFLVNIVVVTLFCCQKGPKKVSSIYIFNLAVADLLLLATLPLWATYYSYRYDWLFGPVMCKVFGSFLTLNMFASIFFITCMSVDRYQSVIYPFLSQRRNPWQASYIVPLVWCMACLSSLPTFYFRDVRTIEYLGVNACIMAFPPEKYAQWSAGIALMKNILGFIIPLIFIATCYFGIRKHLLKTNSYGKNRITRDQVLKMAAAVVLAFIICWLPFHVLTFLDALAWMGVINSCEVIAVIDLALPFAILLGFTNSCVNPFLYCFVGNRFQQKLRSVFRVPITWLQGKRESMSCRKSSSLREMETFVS

| SMILES | pIC50 |
| --- | --- |
| CCCc1nc(CN(Cc2ccccc2)C(=O)OCC(C)C)c(C(=O)O)n1Cc1ccc(-c2ccccc2-c2nn[nH]n2)cc1 | 6.10 |
| CCCc1nc(C(=O)N2CCN(c3ccccn3)CC2)c(C(=O)O)n1Cc1ccc(-c2ccccc2-c2nnn[nH]2)cc1 | 6.15 |
| CCCc1nc(CN2CCN(c3ccccc3OC)CC2)c(C(=O)O)n1Cc1ccc(-c2ccccc2-c2nnn[nH]2)cc1 | 5.52 |
| CCCCCC(=O)NS(=O)(=O)c1ccccc1-c1ccc(Cn2c(CCC)nc(CN3CCN(c4ccccn4)CC3)c2C(=O)O)cc1 | 7.70 |
| CCCc1nc(CN2CCN(c3ccccc3)CC2)c(C(=O)O)n1Cc1ccc(-c2ccccc2-c2nnn[nH]2)cc1 | 7.30 |
| CCCCOC(=O)NS(=O)(=O)c1ccccc1-c1ccc(Cn2c(CCC)nc(CN3CCN(c4ccccn4)CC3)c2C(=O)O)cc1 | 7.05 |
| CCCc1nc(CN(CC(=O)O)C(=O)C(c2ccccc2)c2ccccc2)c(C(=O)O)n1Cc1ccc(-c2ccccc2-c2nn[nH]n2)cc1 | 5.15 |
| CCCc1nc(CN2CCN(c3ncccn3)CC2)c(C(=O)O)n1Cc1ccc(-c2ccccc2-c2nn[nH]n2)cc1 | 7.10 |
| CCCc1nc(CN2CCN(c3ccccc3)C[C@H]2Cc2ccccc2)c(C(=O)O)n1Cc1ccc(-c2ccccc2-c2nn[nH]n2)cc1 | 6.00 |
| CCCc1nc(CN2CCN(c3ccccc3)C[C@H]2C)c(C(=O)O)n1Cc1ccc(-c2ccccc2-c2nnn[nH]2)cc1 | 7.15 |
| CCCc1nc(CN2CCN(C(=O)C3CC3)CC2)c(C(=O)O)n1Cc1ccc(-c2ccccc2-c2nnn[nH]2)cc1 | 5.22 |
| CCCc1nc(CN2CCN(c3ccccn3)CC2)c(C=O)n1Cc1ccc(-c2ccccc2-c2nn[nH]n2)cc1 | 6.00 |
| CCCc1nc(CN2CCN(C(=O)C(c3ccccc3)c3ccccc3)CC2)c(C(=O)O)n1Cc1ccc(-c2ccccc2-c2nn[nH]n2)cc1 | 6.00 |
| CCCc1nc(CN2CCC(c3ccccc3)CC2)c(C(=O)O)n1Cc1ccc(-c2ccccc2-c2nn[nH]n2)cc1 | 6.40 |
| CCCc1nc(CN2CCN(C(=O)c3ccccc3)CC2)c(C(=O)O)n1Cc1ccc(-c2ccccc2-c2nnn[nH]2)cc1 | < 5.00 |
| CCCc1nc(CN(Cc2ccccc2)C(=O)c2ccccc2)c(C(=O)O)n1Cc1ccc(-c2ccccc2S(=O)(=O)NC(=O)OCC(C)C)cc1 | 7.00 |
| CCCCc1nc(CN2CCN(c3ccccn3)CC2)c(C(=O)O)n1Cc1ccc(-c2ccccc2-c2nn[nH]n2)cc1 | 6.15 |
| CCCc1nc(CN2CCN(c3ccccn3)CC2)c(C(=O)O)n1Cc1ccc(-c2ccccc2S(=O)(=O)NC(=O)c2ccccc2)cc1 | 6.30 |
| CCCc1nc(CN(Cc2ccccc2)C(=O)Cc2ccccc2)c(C(=O)O)n1Cc1ccc(-c2ccccc2-c2nn[nH]n2)cc1 | 6.40 |

Results, then the compound that gave them:

| pIC50 | SMILES |
| --- | --- |
| 6.22 | CCCc1nc(CNC(=O)C(c2ccccc2)c2ccccc2)c(C(=O)O)n1Cc1ccc(-c2ccccc2-c2nn[nH]n2)cc1 |
| 6.70 | CCCc1nc(CN2CCN(c3ccccn3)CC2)c(C(=O)O)n1Cc1ccc(-c2ccccc2-c2nn[nH]n2)cc1F |
| 7.05 | CCCCN(Cc1ccccc1)Cc1nc(CCC)n(Cc2ccc(-c3ccccc3-c3nnn[nH]3)cc2)c1C(=O)O |
| 7.05 | CCCCN(Cc1nc(CCC)n(Cc2ccc(-c3ccccc3S(=O)(=O)NC(=O)CCC)cc2)c1C(=O)O)C(=O)CCC |
| 7.10 | CCCc1nc(CN2CCN(c3ccc(F)cc3)CC2)c(C(=O)O)n1Cc1ccc(-c2ccccc2-c2nn[nH]n2)cc1 |
| 6.22 | CCCc1nc(CN2CCN(c3ccccc3Cl)CC2)c(C(=O)O)n1Cc1ccc(-c2ccccc2-c2nnn[nH]2)cc1 |
| 6.00 | CCCc1nc(CN(Cc2ccccc2)C(=O)OC(C)(C)C)c(C(=O)O)n1Cc1ccc(-c2ccccc2-c2nn[nH]n2)cc1 |
| 7.22 | CCCc1nc(CN2CCN(c3ccccn3)CC2)c(C(=O)O)n1Cc1ccc(-c2ccccc2-c2nn[nH]n2)cc1 |
| 6.22 | CCCc1nc(CN2CCN(c3ccccn3)CC2)c(C(=O)O)n1Cc1ccc(-c2ccccc2S(=O)(=O)NC(=O)C2CC2)cc1 |
| 6.30 | CCc1nc(CN2CCN(c3ccccn3)CC2)c(C(=O)O)n1Cc1ccc(-c2ccccc2-c2nnn[nH]2)cc1 |
| 5.40 | CCCc1nc(CNC(=O)OC(C)(C)C)c(C(=O)O)n1Cc1ccc(-c2ccccc2-c2nn[nH]n2)cc1 |
| 6.70 | CCCCCN(CCCCC)Cc1nc(CCC)n(Cc2ccc(-c3ccccc3-c3nnn[nH]3)cc2)c1C(=O)O |
| < 5.00 | CCCc1nc(CN2CCN(c3ccccn3)CC2)c(CO)n1Cc1ccc(-c2ccccc2-c2nn[nH]n2)cc1 |
| 6.52 | CCCc1nc(CN(Cc2ccccc2)C(=O)Nc2ccccc2)c(C(=O)O)n1Cc1ccc(-c2ccccc2-c2nnn[nH]2)cc1 |

Each compound was assayed against T2, Type-1 angiotensin II receptor (Homo sapiens, UniProt P30556) (assay: In vitro binding affinity of compound against Angiotensin II receptor, type 1).
T2 sequence (P30556 whole entry): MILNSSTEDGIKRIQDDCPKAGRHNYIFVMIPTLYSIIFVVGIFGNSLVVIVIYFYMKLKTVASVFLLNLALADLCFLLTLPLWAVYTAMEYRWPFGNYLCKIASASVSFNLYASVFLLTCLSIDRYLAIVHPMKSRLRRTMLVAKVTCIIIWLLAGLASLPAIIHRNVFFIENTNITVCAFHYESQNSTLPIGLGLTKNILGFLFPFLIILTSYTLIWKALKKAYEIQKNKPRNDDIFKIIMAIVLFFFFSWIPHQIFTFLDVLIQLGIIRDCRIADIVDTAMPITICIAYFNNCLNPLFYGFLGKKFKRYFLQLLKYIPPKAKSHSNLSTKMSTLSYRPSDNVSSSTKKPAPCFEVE

| SMILES | pIC50 |
| --- | --- |
| CCCc1nc(CN(Cc2ccccc2)C(=O)OCC(C)C)c(C(=O)O)n1Cc1ccc(-c2ccccc2-c2nn[nH]n2)cc1 | 7.70 |
| CCCc1nc(C(=O)N2CCN(c3ccccn3)CC2)c(C(=O)O)n1Cc1ccc(-c2ccccc2-c2nnn[nH]2)cc1 | 8.70 |
| CCCc1nc(CN2CCN(c3ccccc3OC)CC2)c(C(=O)O)n1Cc1ccc(-c2ccccc2-c2nnn[nH]2)cc1 | 8.70 |
| CCCCCC(=O)NS(=O)(=O)c1ccccc1-c1ccc(Cn2c(CCC)nc(CN3CCN(c4ccccn4)CC3)c2C(=O)O)cc1 | 8.22 |
| CCCc1nc(CN2CCN(c3ccccc3)CC2)c(C(=O)O)n1Cc1ccc(-c2ccccc2-c2nnn[nH]2)cc1 | 8.30 |
| CCCCOC(=O)NS(=O)(=O)c1ccccc1-c1ccc(Cn2c(CCC)nc(CN3CCN(c4ccccn4)CC3)c2C(=O)O)cc1 | 8.22 |
| CCCc1nc(CN(CC(=O)O)C(=O)C(c2ccccc2)c2ccccc2)c(C(=O)O)n1Cc1ccc(-c2ccccc2-c2nn[nH]n2)cc1 | 7.00 |
| CCCc1nc(CN2CCN(c3ncccn3)CC2)c(C(=O)O)n1Cc1ccc(-c2ccccc2-c2nn[nH]n2)cc1 | 8.70 |
| CCCc1nc(CN2CCN(c3ccccc3)C[C@H]2Cc2ccccc2)c(C(=O)O)n1Cc1ccc(-c2ccccc2-c2nn[nH]n2)cc1 | 8.00 |
| CCCc1nc(CN2CCN(c3ccccc3)C[C@H]2C)c(C(=O)O)n1Cc1ccc(-c2ccccc2-c2nnn[nH]2)cc1 | 8.70 |
| CCCc1nc(CN2CCN(C(=O)C3CC3)CC2)c(C(=O)O)n1Cc1ccc(-c2ccccc2-c2nnn[nH]2)cc1 | 8.00 |
| CCCc1nc(CN2CCN(c3ccccn3)CC2)c(C=O)n1Cc1ccc(-c2ccccc2-c2nn[nH]n2)cc1 | 8.70 |
| CCCc1nc(CN2CCN(C(=O)C(c3ccccc3)c3ccccc3)CC2)c(C(=O)O)n1Cc1ccc(-c2ccccc2-c2nn[nH]n2)cc1 | 8.00 |
| CCCc1nc(CN2CCC(c3ccccc3)CC2)c(C(=O)O)n1Cc1ccc(-c2ccccc2-c2nn[nH]n2)cc1 | 8.70 |
| CCCc1nc(CN2CCN(C(=O)c3ccccc3)CC2)c(C(=O)O)n1Cc1ccc(-c2ccccc2-c2nnn[nH]2)cc1 | 8.30 |
| CCCc1nc(CN(Cc2ccccc2)C(=O)c2ccccc2)c(C(=O)O)n1Cc1ccc(-c2ccccc2S(=O)(=O)NC(=O)OCC(C)C)cc1 | 8.10 |
| CCCCc1nc(CN2CCN(c3ccccn3)CC2)c(C(=O)O)n1Cc1ccc(-c2ccccc2-c2nn[nH]n2)cc1 | 8.70 |
| CCCc1nc(CN2CCN(c3ccccn3)CC2)c(C(=O)O)n1Cc1ccc(-c2ccccc2S(=O)(=O)NC(=O)c2ccccc2)cc1 | 8.22 |
| CCCc1nc(CN(Cc2ccccc2)C(=O)Cc2ccccc2)c(C(=O)O)n1Cc1ccc(-c2ccccc2-c2nn[nH]n2)cc1 | 7.70 |

Now from value to compound:

| pIC50 | SMILES |
| --- | --- |
| 8.00 | CCCc1nc(CNC(=O)C(c2ccccc2)c2ccccc2)c(C(=O)O)n1Cc1ccc(-c2ccccc2-c2nn[nH]n2)cc1 |
| 9.05 | CCCc1nc(CN2CCN(c3ccccn3)CC2)c(C(=O)O)n1Cc1ccc(-c2ccccc2-c2nn[nH]n2)cc1F |
| 8.52 | CCCCN(Cc1ccccc1)Cc1nc(CCC)n(Cc2ccc(-c3ccccc3-c3nnn[nH]3)cc2)c1C(=O)O |
| 8.70 | CCCCN(Cc1nc(CCC)n(Cc2ccc(-c3ccccc3S(=O)(=O)NC(=O)CCC)cc2)c1C(=O)O)C(=O)CCC |
| 8.52 | CCCc1nc(CN2CCN(c3ccc(F)cc3)CC2)c(C(=O)O)n1Cc1ccc(-c2ccccc2-c2nn[nH]n2)cc1 |
| 8.70 | CCCc1nc(CN2CCN(c3ccccc3Cl)CC2)c(C(=O)O)n1Cc1ccc(-c2ccccc2-c2nnn[nH]2)cc1 |
| 8.05 | CCCc1nc(CN(Cc2ccccc2)C(=O)OC(C)(C)C)c(C(=O)O)n1Cc1ccc(-c2ccccc2-c2nn[nH]n2)cc1 |
| 8.38 | CCCc1nc(CN2CCN(c3ccccn3)CC2)c(C(=O)O)n1Cc1ccc(-c2ccccc2-c2nn[nH]n2)cc1 |
| 8.00 | CCCc1nc(CN2CCN(c3ccccn3)CC2)c(C(=O)O)n1Cc1ccc(-c2ccccc2S(=O)(=O)NC(=O)C2CC2)cc1 |
| 7.70 | CCc1nc(CN2CCN(c3ccccn3)CC2)c(C(=O)O)n1Cc1ccc(-c2ccccc2-c2nnn[nH]2)cc1 |
| 8.22 | CCCc1nc(CNC(=O)OC(C)(C)C)c(C(=O)O)n1Cc1ccc(-c2ccccc2-c2nn[nH]n2)cc1 |
| 8.70 | CCCCCN(CCCCC)Cc1nc(CCC)n(Cc2ccc(-c3ccccc3-c3nnn[nH]3)cc2)c1C(=O)O |
| 8.00 | CCCc1nc(CN2CCN(c3ccccn3)CC2)c(CO)n1Cc1ccc(-c2ccccc2-c2nn[nH]n2)cc1 |
| 8.70 | CCCc1nc(CN(Cc2ccccc2)C(=O)Nc2ccccc2)c(C(=O)O)n1Cc1ccc(-c2ccccc2-c2nnn[nH]2)cc1 |

Each compound was assayed on Rattus norvegicus (assay: Compound was tested for its antihypertensive activity after intravenous administration to renal hypertensive rats).
Assay type: functional

| SMILES | ED30 [mg/kg] |
| --- | --- |
| CCCc1nc(C(=O)N2CCN(c3ccccn3)CC2)c(C(=O)O)n1Cc1ccc(-c2ccccc2-c2nnn[nH]2)cc1 | 0.018 |
| CCCCN(Cc1ccccc1)Cc1nc(CCC)n(Cc2ccc(-c3ccccc3-c3nnn[nH]3)cc2)c1C(=O)O | 0.04 |
| CCCCN(Cc1nc(CCC)n(Cc2ccc(-c3ccccc3S(=O)(=O)NC(=O)CCC)cc2)c1C(=O)O)C(=O)CCC | 0.18 |
| CCCCCC(=O)NS(=O)(=O)c1ccccc1-c1ccc(Cn2c(CCC)nc(CN3CCN(c4ccccn4)CC3)c2C(=O)O)cc1 | 0.13 |
| CCCc1nc(CN2CCN(c3ccccc3)CC2)c(C(=O)O)n1Cc1ccc(-c2ccccc2-c2nnn[nH]2)cc1 | 0.004 |
| CCCc1nc(CN2CCN(c3ccccn3)CC2)c(C(=O)O)n1Cc1ccc(-c2ccccc2-c2nn[nH]n2)cc1 | 0.003 |
| CCCCc1nc(Cl)c(CO)n1Cc1ccc(-c2ccccc2-c2nnn[n-]2)cc1.[K+] [LOSARTAN POTASSIUM] | 0.78 |

The compounds below were run on Rattus norvegicus (assay: Compound was tested for its antihypertensive activity after oral administration to renal hypertensive rats).
Assay type: functional

| SMILES | ED30 [mg/kg] |
| --- | --- |
| CCCc1nc(C(=O)N2CCN(c3ccccn3)CC2)c(C(=O)O)n1Cc1ccc(-c2ccccc2-c2nnn[nH]2)cc1 | ~3 |
| CCCCN(Cc1ccccc1)Cc1nc(CCC)n(Cc2ccc(-c3ccccc3-c3nnn[nH]3)cc2)c1C(=O)O | 3 |
| CCCCN(Cc1nc(CCC)n(Cc2ccc(-c3ccccc3S(=O)(=O)NC(=O)CCC)cc2)c1C(=O)O)C(=O)CCC | 1.65 |
| CCCCCC(=O)NS(=O)(=O)c1ccccc1-c1ccc(Cn2c(CCC)nc(CN3CCN(c4ccccn4)CC3)c2C(=O)O)cc1 | > 10 |
| CCCc1nc(CN2CCN(c3ccccc3)CC2)c(C(=O)O)n1Cc1ccc(-c2ccccc2-c2nnn[nH]2)cc1 | > 3 |
| CCCc1nc(CN2CCN(c3ccccn3)CC2)c(C(=O)O)n1Cc1ccc(-c2ccccc2-c2nn[nH]n2)cc1 | > 3 |
| CCCCc1nc(Cl)c(CO)n1Cc1ccc(-c2ccccc2-c2nnn[n-]2)cc1.[K+] [LOSARTAN POTASSIUM] | 0.59 |
